Data as given in patent US20220334101A1, “MODULATING EXTRACELLULAR MATRIX MOVEMENT” (Helmholtz Zentrum Muenchen - Deutsches Forschungszentrum …, priority 2019, published 2022).
“Also recorded” adds a separate entry of the source. Structures can show the parent of a compound that is named as a salt. Where two headings read alike, the source gives them in different places.

Tests used:
[1] = system: skin-fascia explants; test: Scar-in-a-dish (SCAD) ex vivo skin-fascia explant assay, screening of Prestwick chemical library; assay type: cell-based, mouse; conditions: molecules of table 1 named as inhibitors of ECM movement
From the text: Post born Day 0 (P0) neonates of C57BL/6J wild type mouse were first sacrificed by decapitation. Then dorsal back skin was isolated to make 2 mm full thickness biopsies (0 2 mm, Stiefel) that included the epidermis, dermis and deep subcutaneous fascia layers. The whole skin tissue explant system is termed as scar-in-a-dish (SCAD) assay (Patent Application no. PLA17A13). The SCAD tissue was maintained in DMEM/F12 cell culture medium (Life Technologies) supplemented with 10% FBS (Life Technologies), 1% non-essential amino acid (Thermo Fisher), 1% Glutamax (Thermo Fisher), 1% penicillin and streptomycin (Thermo Fisher) in a 37° C. incubator supplied with […] and 5% CO2. Medium was changed every other day until day 5 when SCADs were collected and fixed for histology analysis. To be noticed, the excised skin was submerged […] in culture media, which confined the scar-prone fibroblasts to the explant and discouraged their adherence to the tissue culture plate.
The PCL provides an additional advantage as all chemicals are of stable physicochemical properties, show a high range of chemical diversity, and are with known bioavailability and safety data in humans. All these information helps to reduce the probability of screening low-quality hits and save the costs of preliminary screening process.
In order to accommodate to medium scale screening approach, the Inventors adapted the SCAD explant system into 96-well plate (Falcon) formats, with each well contained one biopsy. […] Plate and liquid handling were performed using a high-throughput screening platform system composed of a Sciclone G3 Liquid Handler from PerkinElmer (Waltham, Mass., USA). On Day 0 tissues were treated either with the respective compound (1 mM stock solution) dissolved in 100% dimethyl sulfoxide (DMSO, Carl Roth) or DMSO alone. 0.5 μl of compounds/DMSO were transferred with a 96-array head to 200 μl DMEM/F12 medium per well to keep the final DMSO concentrations at […]. Tissues were then incubated (37° C.; 5% CO2) for 72 h prior to a second round of compound treatment, which was performed by exchanging cell culture medium per well and transferring […] of compounds/DMSO into the fresh medium. After an incubation time of another 48 h (37° C.; 5% CO2) the tissues were harvested and fixed for histological processing and imaging.
Briefly, the Inventors excised 2-mm full thickness skin biopsies that included epidermis, dermis, and deep subcutaneous fascia layers from mouse backs (see Methods). Skin-fascia explants were submerged fascia-side up in culture media, to confine scar-prone fibroblasts to the explant and discourage their adherence to the tissue culture plate.
The Prestwick library has selected a diverse array of chemicals with strong physicochemical properties, with known bioavailability and clinical safety data. The library is an ideal place to start screening as it covers all major therapeutic chemical classes such as central nervous system, cardiovascular system, metabolism, and infectious diseases.

[2] = system: fascia fibroblasts; test: Fascia invasion assay (ex vivo fascia 3D Matrigel culture); assay type: cell-based, mouse
Description: In order to observe the dynamic changes of fascia fibroblasts, the inventors isolated dorsal skin from P4 to P6 neonates of En1^Cre; R26^mTmG mouse lines. Cre positive neonates from this double transgenic mouse line were detected by green fluorescent signal in dorsal skin with a Leica M205 FA stereo microscope. Matrigel was prepared by diluting the stock aliquots with DMEM/F12 medium to a concentration of 6 mg/ml. Then 150 μl prepared gel was added in the center of a 35 mm cell culture dish (Ibidi). 4 mm biopsies were made from the dorsal skin and fascia tissues were then isolated from the dorsal skin tissues. Isolated fascia tissues were then embedded into the gel and were allowed to be solidified for one hour at 37° C. Then the tissue-gel system was maintained in DMEM/F12 medium (Life Technologies) supplemented with 10% FBS (Life Technologies), 1% non-essential amino acid (Thermo Fisher), 1% Glutamax (Thermo Fisher), 1% penicillin and streptomycin (Thermo Fisher) in a 37° C. incubator supplied with 95% O2 and 5% CO2. Medium was changed every other day until day 4 when tissues were collected and fixed. For fixation with Matrigel system, tissues were fixed in 2% paraformaldehyde (VWR) with 0.1% glutaraldehyde (Sigma) for 1 hour and then washed three times with phosphate buffered saline (PBS, Life Technologies) and stored in PBS at 4° C.
Fascia tissues were recorded everyday by a brightfield microscope to check the invasion and contraction state of the tissues. The invasion index was calculated with the following formula: Invasion index=(SD4−SD0)/SD0
SD4 and SD0 represent tissue size (including the migrated area) on Day 4 and Day 0, respectively. The contraction index was calculated with the following formula: Contraction index=(TD0−TD4)/TD0
TD4 and TD0 represent original tissue size (excluding the migrated area) on Day 4 and Day 0 respectively.
The Inventors isolated fascia from back-skin of En1^Cre; R26^mTmG double-transgenic mice, separately incubated whole fascia explants with 26 small molecules, and measured the invasion index (Si)=(SD4−SD0)/SD0 (see Methods) as a proxy measure of sprouting and reticulation.

[3] = system: scars of splinted back-skin wounds; test: In vivo splinted wound model (scar formation); design: species or system mouse; conditions: 75 μl per wound of 250 μM intra-dermally, day 21, trichrome staining
[4] = system: fascia fibroblasts; test: 3D staining of fascia tissue for αSMA, Ki67 and caspase 3; assay type: cell-based, mouse; conditions: fascia tissue in Matrigel
Description: (§1) In order to characterize the properties of fascia samples cultured in Matrigel, the Inventors fixed the whole gel (with fascia tissue embedded inside) and conducted 3D staining. Samples were immersed overnight in PBSGT (lx PBS implemented with 0.2% gelatin (Sigma), 0.5% Triton X-100 (Sigma) and 0.01% thimerosal (Sigma)) at room temperature and incubated with primary antibodies diluted in PBSGT for three days at room temperature. The tissues were then washed three times with PBSGT for at least 30 min each time and incubated with secondary antibodies diluted in PBSGT for one day. Finally, tissues were rinsed three times with PBSGT and stored in PBS at 4° C. until imaging. 3D whole mount imaging was conducted with a Leica SP8 multi-photon microscope.
(§2) Primary and secondary antibodies applied in 3D staining: αSMA (ab21027, Abcam), Ki 67 (ab16667, Abcam), Cleaved Caspase-3 (9661S, Cell signalling), Gli1 (ab49314, Abcam), Donkey anti rabbit AF647 (A-31573, Life Technologies), Donkey anti goat AF647 (A-21447, Life Technologies).
To better understand the molecular basis of reticulations that leads to scarring, the Inventors took a closer look at the molecular targets of the ‘hit’ chemicals. […] Thiostrepton reduces the binding activity of the transcriptional factor FoxM1; a positive regulator of Gli1 signaling (REF). Whereas Itraconazole inhibits Gli nuclear activity through stopping SMO moving to the membrane of primary cilia and thus inhibiting the pathway (James et al., 2010). […] The 3rd anti-scar drug Fluvastatin inhibits 3-Hydroxy-3-methylglutaryl-coenzyme A (HMG-CoA) reductase, a rate-limiting enzyme in cholesterol biogenesis that is required for hedgehog pathway activation (Huang P et al., 2016; Giovanni Luchetti et al., 2016). […] Thus, the Inventors conclude that anti-fibrosis chemicals converge on SHH pathway signaling to modulate fibroblast sprouting and reticulations, needed to mobilize fascia jelly into sites of injury.
The hedgehog pathway was also reported to induce proliferation and to depress apoptosis.

[5] = system: fascia matrix mobilization into wounds; test: Fascia labelling study: fascia mobilization into excisional back-skin wounds in live mice; assay type: in vivo, mouse; conditions: 75 μl of 250 μM three times a week, wounds collected Day 7
Description: For the fascia labelling study, 2 mg/ml NHS-fluorescein dye was subcutaneously injected into dorsal skin of wildtype mice at 4 days and 2 days prior to the surgery. After labelling, excisional wounds were made in mouse back-skin and treated with 75 μl saline diluted chemical solutions with a final concentration of 250 μM three times a week from the surgery day onwards. Scar samples were collected on D7.
Having discovered sprouting and reticulations are altered by the compounds, the Inventors went on to check how these effect fascia mobilization in physiologic wounds in live animals. First, the Inventors labelled the subcutaneous fascia layer with a FITC-NHS ester dye in animals, then made full thickness excisional wounds on the backs of fascia-labelled mice, and followed wound healing under the presence of a […] injection regimen using the above 3 separate compounds. Skin wounds were collected at Day 7 after wounding to determine the extent of fascia mobilization and also at 21 days post-injury to determine final wound size and scar severity. In DMSO control groups, the fascia matrix jelly was mobilized into the wound from all sides of the wound, and wounds at 7 days were completely clogged with large patches of labelled matrix jelly.

[6] = system: pleural fluid matrix movement into lungs; test: Bleomycin-induced lung fibrosis model with pleural matrix fate tracing; assay type: in vivo, mouse
Description: The inventors generated a labelling solution by mixing 5 μl NHS-ester (25 mg/ml) with 5 μl of 100 mM pH 9.0 sodium bicarbonate buffer, combining with 40 μl PBS to a total volume of 50 μl. The labelling solution was applied intra pleural under isoflurane anaesthesia by using a 30G cannula. The oropharyngeal administration of bleomycin for the induction of pulmonary fibrosis was carried out in an antagonistic anesthesia in C57BL/6J mice of both sexes (6-8 weeks age). After the toe-pinch reflex was absent, the mouse was placed on the incisors of the upper jaw and thus kept in an upright position. The tongue was carefully fixed and held to the side with tweezers while the nose of the animal is covered with tweezers. By keeping the nose closed, the mouse was forced to breathe through the mouth. With the help of a pipette, bleomycin was dissolved in a dosage of 2 units/kg KGW in 80 μl PBS carefully into the throat. As soon as the animal has inhaled the solution, it was tansferred to a Hot plate (duration approx. 30 to 60 seconds). After antagonization animals were housed for 14 days. Nintedanib was added 1 hour before bleomycin installation and every other day intra peritoneal 10 μM. To directly answer if Nintedanib's anti-fibrotic actions are mediated through its effects on fluid matrix movements, the Inventors labeled fluid matrix reservoirs on lung surfaces as before, induced lung inflammation and fibrosis with Bleomycin, and followed these mice with daily injections of Nintedanib (FIG. 44B). […] Both lung alveoli and major blood vessels lacked accretions of labeled fibers.

[7] = system: Gli1; test: 3D staining of fascia tissue for Gli1 (hedgehog pathway); assay type: cell-based, mouse; conditions: fascia tissue in Matrigel
Description: as §1, §2
To better understand the molecular basis of reticulations that leads to scarring, the Inventors took a closer look at the molecular targets of the ‘hit’ chemicals. […] Thiostrepton reduces the binding activity of the transcriptional factor FoxM1; a positive regulator of Gli1 signaling (REF). […]

[8] = system: fascia matrix; test: Fascia in vitro culture, live imaging of matrix movements (SHG); assay type: cell-based, mouse; conditions: C57BL6/J neonate fascia biopsy, 100 μM Etoposide
Description: Two in vitro systems were used. To visualize the changes in matrix architecture in real time, 2 mm-diameter biopsies were excised from P0 C57BL/6J neonates and processed for live imaging (SCAD assay, Patent Application No. PLA17A13). To determine the effectiveness of the DT treatment, muscle+fascia was manually separated from the rest of the skin in the chimeric grafts experiments and incubated with DT at different concentrations for 1 h at ambient temperature. […]
Histological sections were imaged using a using a ZEISS AxioImager.Z2m (Carl Zeiss). […] Second harmonic generation signal and green auto-fluorescence as a reference were recorded every hour. […]
Histological images were analyzed using ImageJ. For quantification of labeled cells in the fate mapping experiments, the Inventors manually defined the wound, surrounding dermis, and adjacent fascia areas. […] The number of labeled cells in each area was determined by quantifying the particles that were double-positive for DAPI and for the desired label (eg. Dil, GFP, etc) channels. The coverage of the labeled matrix in the wound area was determined by quantifying the area that was double-positive for the labeled matrix and the COLLAGEN I+III+VI staining signal. […] Scar length was quantified from randomly selected sections taken from the middle of the scar using as a reference the two flanking hair follicles. […]

[9] = listed as Fluvastatin, sodium salt

SMILES: C=C(NC(=O)C(=C)NC(=O)c1csc(C2=N[C@@H]3c4csc(n4)[C@H]4NC(=O)c5csc(n5)[C@H]([C@](C)(O)[C@@H](C)O)NC(=O)[C@H]5CSC(=N5)/C(=C/C)NC(=O)[C@H]([C@@H](C)O)NC(=O)c5csc(n5)[C@]3(CC2)NC(=O)[C@H](C)NC(=O)C(=C)NC(=O)[C@H](C)NC(=O)[C@H]([C@@H](C)CC)N[C@@H]2C=Cc3c([C@H](C)O)cc(nc3[C@H]2O)C(=O)O[C@@H]4C)n1)C(N)=O [Thiostrepton]
- phenotype as inhibitor of ECM movement [1]: anti-fibrotic phenotype
- inter-cell connectivity, sprouting and reticulations within the fascia [2]: completely inhibited sprouting and reticulations
- scar size / scarring of wounds [3]: reduced scaring of wounds
- cell death (caspase 3) [4]: increased
- cell proliferation activity (Ki67) [4]: decreased
- fascia (matrix jelly) mobilization into wounds [5]: reduced fascia jelly movements; also recorded: inhibited

SMILES: COC(=O)c1ccc2c(c1)NC(=O)/C2=C(\Nc1ccc(N(C)C(=O)CN2CCN(C)CC2)cc1)c1ccccc1 [Nintedanib]
- inward translocations (movements) of fluid matrix ([6]; Nintedanib 10 μM i.p. 1 hour before bleomycin and repeatedly, 14 days): completely abrogated
- activation of lung interstitial fibroblasts into myofibroblasts ([6]; two weeks after bleomycin): refrained from activating into pathologic YAP/TAZ-positive myofibroblasts
- matrix on lung surfaces (pleural matrix pools): structures and fluorescence intensity ([6]; two weeks after bleomycin): maintained the same structures and fluorescence intensity; also recorded: rescues pleural matrix pools
- fibrotic developments along lung airways and bronchioles ([6]; two weeks after bleomycin, histology): very minimal signs of fibrotic developments

SMILES: CC(C)n1c(/C=C/C(O)CC(O)CC(=O)O)c(-c2ccc(F)cc2)c2ccccc21 (stereo not drawn) [Fluvastatin sodium salt]
- phenotype as inhibitor of ECM movement [1]: anti-fibrotic phenotype
- inter-cell connectivity, sprouting and reticulations within the fascia [2, 9]: intact cell-cell connection and network formation
- inter-cell connectivity, sprouting and reticulations within the fascia ([2]; sodium salt): completely inhibited sprouting and reticulations
- scar size / scarring of wounds [3]: reduced scaring of wounds
- cell death (caspase 3) [4]: increased
- cell proliferation activity (Ki67) [4]: decreased
- αSMA expression / activation into myofibroblasts [4]: cells can be activated into myofibroblast
- fascia (matrix jelly) mobilization into wounds [5, 9]: completely inhibited
- fascia (matrix jelly) mobilization into wounds ([5]; sodium salt): reduced fascia jelly movements
- Gli1 protein expression [7]: weakly expressed

SMILES: COc1cc([C@@H]2c3cc4c(cc3[C@@H](O[C@@H]3O[C@@H]5CO[C@@H](C)O[C@H]5[C@H](O)[C@H]3O)[C@H]3COC(=O)[C@H]23)OCO4)cc(OC)c1O [Etoposide]
- fascia matrix movements (contraction) [8]: no effect; also recorded: clear contraction of the fascial matrix in culture in absence of cell proliferation
